The source of these data is US9682960B2 (priority 2013, dated 2017).

Like-named read-outs stand apart in the source and are kept apart here.

In general, IC50 refers to the concentration needed to halve the response being measured.

One test deals with Human Androgen Receptor (Homo sapiens (Human), UniProt P10275). As to the kind of experiment: Androgen receptor assay: [3H]R1881 displacement, cytosol of HEK-293 cells transfected with hAR (hydroxylapatite assay). The class given is binding. Conditions: relative binding affinity, R1881 = 100.
The test system of test [1] is castrated (CX) immature male rats. As to the kind of experiment: Systemic androgenic (agonistic) activity in orchidectomized (CX) immature male rats. Format: in vivo, rat. Conditions: 0.1 mg/rat/po, 7 days; for CX Agonistic activity % Stimulation Bulbo: bulbocavernosus muscles weight; for CX Agonistic activity % Stimulation SV: seminal vesicles weight; for CX Agonistic activity % Stimulation Prostate: ventral prostate weight. On the procedure: Immature male rats (Crl:CD(SD)Br) 22 to 24-day old weighting 60-80 g at start of treatment were obtained from Charles-River, Inc. (St-Constant, Quebec, Canada) and housed up to 5 per cage in plastic bins in a temperature (23±1° C.)- and light (12 h light/day, lights on at 7 h15)-controlled environment. The rats were fed rodent chow and tap water ad libitum. […] The day following their arrival, the designed animals were orchidectomized (CX) under Isoflurane anesthesia (Study Day 1) via the scrotal route and were then randomly assigned to groups of 3 to 5 animals. At the time of orchidectomy, one silastic implant of dihydrotestosterone (DHT; 1 cm length of pure DHT in silastic tubing having inner and outer diameter of 0.078 and 0.125 inches, respectively), was inserted subcutaneously in the dorsal area of animals assigned to the evaluation of antiandrogenic activity. In the case of intact animal experiments, the orchidectomy and the silastic implant installation are omitted.
Tested compounds were administered orally once daily for 7 days from Study Day 2 to Study Day 8 at doses generally ranging from 0.1 and 0.5 mg/animal. Compounds were either solubilized in dimethylsulfoxide (DMSO, 10% final concentration) and were administered as a solution/suspension in 0.9% NaCl-1% gelatin or were administered as suspensions in 0.4% aqueous methylcellulose. Animals of the control groups received the corresponding vehicle alone during the 7-day period. Some animals were treated with the antiandrogen Flutamide or Casodex as reference. The animals under isoflurane anesthesia were killed by cervical dislocation on day 9 of the study, approximately 24 h after the last dosing. The ventral prostate, seminal vesicles and bulbocavernosus muscles were rapidly dissected and weighed.
For calculations with intact animals, control DHT is replaced by control intact and the % stimulation is subtracted by 100%. W is the weight of the prostate, seminal vesicles or bulbocavernosus muscles. Discussion

The test system of test [2] is Shionogi mouse mammary carcinoma cells. Put plainly: In vitro androgenic/antiandrogenic activity: proliferation of Shionogi cells with or without DHT. Format: cell-based. Conditions: Mus musculus.
[3] abbreviates: read-out: Shionogi Antiandrogenic Activity IC50, DHT (0.3 nM)-stimulated cell number.
Where [4] appears, read: DHT (0.3 nM)-stimulated cell number, read-out: Shionogi Antiandrogenic Activity IC50.

Human Androgen Receptor, sequence (P10275 whole entry): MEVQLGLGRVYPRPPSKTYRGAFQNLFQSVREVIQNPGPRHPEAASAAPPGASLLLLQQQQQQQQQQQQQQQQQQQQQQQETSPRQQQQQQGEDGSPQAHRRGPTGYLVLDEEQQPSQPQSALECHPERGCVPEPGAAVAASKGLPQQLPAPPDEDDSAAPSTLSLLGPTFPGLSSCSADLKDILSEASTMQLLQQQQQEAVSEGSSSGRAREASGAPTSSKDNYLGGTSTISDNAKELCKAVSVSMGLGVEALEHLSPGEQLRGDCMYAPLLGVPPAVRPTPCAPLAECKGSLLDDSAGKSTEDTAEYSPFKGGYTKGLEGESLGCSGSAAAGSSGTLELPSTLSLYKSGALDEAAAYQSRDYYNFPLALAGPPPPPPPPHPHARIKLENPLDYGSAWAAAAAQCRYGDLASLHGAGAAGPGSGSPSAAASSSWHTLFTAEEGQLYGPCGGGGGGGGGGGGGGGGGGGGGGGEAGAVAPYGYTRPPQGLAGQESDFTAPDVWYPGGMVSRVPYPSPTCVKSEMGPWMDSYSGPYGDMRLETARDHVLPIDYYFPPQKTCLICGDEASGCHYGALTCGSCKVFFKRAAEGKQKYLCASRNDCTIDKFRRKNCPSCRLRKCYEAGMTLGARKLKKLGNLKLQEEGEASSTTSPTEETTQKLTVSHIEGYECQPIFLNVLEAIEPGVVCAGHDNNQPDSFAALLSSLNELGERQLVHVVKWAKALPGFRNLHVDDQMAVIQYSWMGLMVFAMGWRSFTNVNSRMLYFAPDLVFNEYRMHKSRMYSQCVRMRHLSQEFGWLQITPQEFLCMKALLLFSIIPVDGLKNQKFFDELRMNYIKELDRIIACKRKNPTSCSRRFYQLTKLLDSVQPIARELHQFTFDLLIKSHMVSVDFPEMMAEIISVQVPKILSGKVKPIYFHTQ

Consider `Cc1c(N2C(=O)C(C)(C)N(CCCOc3ccc(-c4ccccn4)cc3F)C2=S)ccc(C#N)c1Cl` [EM-8715], for which the “Human Androgen Receptor Binding RBA (%) R1881 = 100” value at Human Androgen Receptor ([…]) is 155%. In test [1], the “CX Agonistic activity % Stimulation Bulbo” value was 58%, the “CX Agonistic activity % Stimulation SV” value came out at 11% and the “CX Agonistic activity % Stimulation Prostate” value is given as 35%. In test [2] (setting [3]), the 50% inhibitory concentration (IC50) turned out to be 57.3 nM.

For `Cc1c(N2C(=O)C(C)(C)N(CCCOc3ccc(-c4ccncc4)cc3F)C2=S)ccc(C#N)c1Cl` [EM-8723], the “Human Androgen Receptor Binding RBA (%) R1881 = 100” value at Human Androgen Receptor ([…]) was determined as 408%. In test [1], the “CX Agonistic activity % Stimulation Bulbo” value amounted to 129%, the “CX Agonistic activity % Stimulation SV” value came to 56% and the “CX Agonistic activity % Stimulation Prostate” value is 60%. For the same compound, the IC50 in test [2] (setting [3]) is 120 nM.

Consider `Cc1c(N2C(=O)C(C)(C)N(CCCOc3ccc4ncccc4c3)C2=S)ccc(C#N)c1Cl` [EM-8728], for which the “Human Androgen Receptor Binding RBA (%) R1881 = 100” value on Human Androgen Receptor ([…]) amounted to 125.4%. Further, in test [1], the “CX Agonistic activity % Stimulation Bulbo” value is on record as 98%, the “CX Agonistic activity % Stimulation SV” value is 25% and the “CX Agonistic activity % Stimulation Prostate” value was found to be 48%. In test [2] (setting [3]), the half-maximal inhibitory concentration (IC50) came to 53.4 nM.

As to `Cc1c(N2C(=O)C(C)(C)N(CCCOc3ccc4cccnc4c3)C2=S)ccc(C#N)c1Cl` [EM-8730], the “Human Androgen Receptor Binding RBA (%) R1881 = 100” value at Human Androgen Receptor (transfected cells) is 140.5%. In test [1], the “CX Agonistic activity % Stimulation Bulbo” value stood at 178%, the “CX Agonistic activity % Stimulation SV” value is listed as 73% and the “CX Agonistic activity % Stimulation Prostate” value was 59%. The IC50 in test [2] (setting [4]) turned out to be 105 nM.

For the compound `Cc1c(N2C(=O)C(C)(C)N(CCCOc3ccc(-c4ccncc4)cc3C(F)(F)F)C2=S)ccc(C#N)c1C(F)(F)F` [EM-8772], on Human Androgen Receptor (transfected cells), the “Human Androgen Receptor Binding RBA (%) R1881 = 100” value came out at 2.6%. Further, in test [1], the “CX Agonistic activity % Stimulation Bulbo” value stood at 104%, the “CX Agonistic activity % Stimulation SV” value was 15% and the “CX Agonistic activity % Stimulation Prostate” value came to 29%. The half-maximal inhibitory concentration (IC50) in test [2] (setting [4]) came to 137 nM.

Take `Cc1c(N2C(=O)C(C)(C)N(CCCOc3ccc(-c4ccncc4)cc3C(F)(F)F)C2=S)ccc(C#N)c1Cl` [EM-8773]: on Human Androgen Receptor ([…]), the “Human Androgen Receptor Binding RBA (%) R1881 = 100” value is given as 28.1%. Besides, in test [1], the “CX Agonistic activity % Stimulation Bulbo” value is reported as 123%, the “CX Agonistic activity % Stimulation SV” value was determined as 30% and the “CX Agonistic activity % Stimulation Prostate” value is reported as 30%. Also, the IC50 in test [2] (setting [3]) came out at 125 nM.

`Cc1c(N2C(=O)N(CCCOc3ccc4cccnc4c3)C(C)(C)C2=O)ccc(C#N)c1Cl` [EM-8786]: at Human Androgen Receptor (transfected cells), the “Human Androgen Receptor Binding RBA (%) R1881 = 100” value is reported as 8.9 ± 0.2 (n = 2) %. Also, in test [1], the “CX Agonistic activity % Stimulation Bulbo” value was 124 ± 32 (n = 2) %, the “CX Agonistic activity % Stimulation SV” value is listed as 10 ± 10 (n = 2) % and the “CX Agonistic activity % Stimulation Prostate” value is given as 35 ± 10 (n = 2) %. Moreover, the IC50 in test [2] (setting [3]) stood at 191 ± 87 nM.

On to `Cc1c(N2C(=O)C(C)(C)N(CCCOc3ccc(-c4ccncc4)cc3F)C2=S)ccc(C#N)c1C(F)(F)F` [EM-8793], for which the “Human Androgen Receptor Binding RBA (%) R1881 = 100” value on Human Androgen Receptor (transfected cells) is given as 412%. Also, in test [1], the “CX Agonistic activity % Stimulation Bulbo” value amounted to 139%, the “CX Agonistic activity % Stimulation SV” value was 42% and the “CX Agonistic activity % Stimulation Prostate” value worked out at 29%. The IC50 in test [2] (setting [3]) came out at 48.2 nM.

For the compound `Cc1c(N2C(=O)C(C)(C)N(CCCOc3ccc(-c4ccncc4)c(F)c3)C2=S)ccc(C#N)c1Cl` [EM-8796], on Human Androgen Receptor ([…]), the “Human Androgen Receptor Binding RBA (%) R1881 = 100” value amounted to 698%. In test [1], the “CX Agonistic activity % Stimulation Bulbo” value is given as 168%, the “CX Agonistic activity % Stimulation SV” value is reported as 127% and the “CX Agonistic activity % Stimulation Prostate” value was found to be 58%. The half-maximal inhibitory concentration (IC50) in test [2] (setting [3]) amounted to 188 nM.

For `Cc1c(N2C(=O)C(C)(C)N(CCCOc3ccc(-c4ccncc4)c(F)c3)C2=S)ccc(C#N)c1C(F)(F)F` [EM-8797], the “Human Androgen Receptor Binding RBA (%) R1881 = 100” value on Human Androgen Receptor (transfected cells) was 400%. For the same compound, in test [1], the “CX Agonistic activity % Stimulation Bulbo” value amounted to 143%, the “CX Agonistic activity % Stimulation SV” value is 58% and the “CX Agonistic activity % Stimulation Prostate” value was found to be 50%. Also, the IC50 in test [2] (setting [4]) is 108 nM.

For the compound `Cc1c(N2C(=O)C(C)(C)N(CCCOc3ccc(-c4ccncc4)cc3Cl)C2=S)ccc(C#N)c1C(F)(F)F` [EM-8798], the “Human Androgen Receptor Binding RBA (%) R1881 = 100” value on Human Androgen Receptor (transfected cells) came out at 219%. Also, in test [1], the “CX Agonistic activity % Stimulation Bulbo” value is 114%, the “CX Agonistic activity % Stimulation SV” value is given as 25% and the “CX Agonistic activity % Stimulation Prostate” value was 49%. For the same compound, the half-inhibitory concentration (IC50) in test [2] (setting [3]) came to 130 nM.

For the compound `Cc1c(N2C(=O)C(C)(C)N(CCCOc3ccc(-c4ccncc4)cc3Cl)C2=S)ccc(C#N)c1Cl` [EM-8799], the “Human Androgen Receptor Binding RBA (%) R1881 = 100” value on Human Androgen Receptor ([…]) was found to be 877%. In addition, in test [1], the “CX Agonistic activity % Stimulation Bulbo” value came out at 126%, the “CX Agonistic activity % Stimulation SV” value was 55% and the “CX Agonistic activity % Stimulation Prostate” value worked out at 58%. Moreover, the IC50 in test [2] (setting [3]) came to 116 nM.

Regarding `Cc1c(N2C(=O)C(C)(C)N(CCCOc3ccc(-c4ccncc4)cn3)C2=S)ccc(C#N)c1Cl` [EM-8815], at Human Androgen Receptor (transfected cells), the “Human Androgen Receptor Binding RBA (%) R1881 = 100” value amounted to 159%. Besides, in test [1], the “CX Agonistic activity % Stimulation Bulbo” value was found to be 163%, the “CX Agonistic activity % Stimulation SV” value was 75% and the “CX Agonistic activity % Stimulation Prostate” value was 59%. In test [2] (setting [3]), the 50% inhibitory concentration (IC50) came out at 80 nM.

As for `Cc1c(N2C(=O)C(C)(C)N(CCCOc3ccc(-c4ccncc4)c(C(F)(F)F)c3)C2=S)ccc(C#N)c1Cl` [EM-8820], at Human Androgen Receptor (transfected cells), the “Human Androgen Receptor Binding RBA (%) R1881 = 100” value came out at 263%. In test [1], the “CX Agonistic activity % Stimulation Bulbo” value is 154%, the “CX Agonistic activity % Stimulation SV” value is recorded as 58% and the “CX Agonistic activity % Stimulation Prostate” value is recorded as 33%. For the same compound, in test [2] (setting [3]), the IC50 turned out to be 21.8 nM.

In the case of `Cc1c(N2C(=O)C(C)(C)N(CCCOc3ccc(-c4ccncc4)nc3)C2=S)ccc(C#N)c1Cl` [EM-8827], at Human Androgen Receptor ([…]), the “Human Androgen Receptor Binding RBA (%) R1881 = 100” value was 113%. In addition, in test [1], the “CX Agonistic activity % Stimulation Bulbo” value stood at 133%, the “CX Agonistic activity % Stimulation SV” value was determined as 38% and the “CX Agonistic activity % Stimulation Prostate” value stood at 41%. In addition, in test [2] (setting [3]), the concentration for half-maximal inhibition (IC50) was determined as 118 ± 14 nM.

Regarding `Cc1c(N2C(=O)C(C)(C)N(CCCOc3ccc(Oc4ccc(Cl)nc4)nc3)C2=S)ccc(C#N)c1Cl` [EM-8828], the “Human Androgen Receptor Binding RBA (%) R1881 = 100” value at Human Androgen Receptor ([…]) came out at 112%. Also, in test [1], the “CX Agonistic activity % Stimulation Bulbo” value is 161%, the “CX Agonistic activity % Stimulation SV” value worked out at 31% and the “CX Agonistic activity % Stimulation Prostate” value worked out at 40%. Further, the 50% inhibitory concentration (IC50) in test [2] (setting [3]) stood at 96.5 nM.

On to `Cc1c(N2C(=O)C(C)(C)N(CCCOc3ccc4cnccc4c3)C2=S)ccc(C#N)c1Cl` [EM-8869], for which, on Human Androgen Receptor (transfected cells), the “Human Androgen Receptor Binding RBA (%) R1881 = 100” value was 56%. For the same compound, in test [1], the “CX Agonistic activity % Stimulation Bulbo” value amounted to 101%, the “CX Agonistic activity % Stimulation SV” value was 18% and the “CX Agonistic activity % Stimulation Prostate” value was found to be 31%. The concentration for half-maximal inhibition (IC50) in test [2] (setting [4]) is around 1000 nM.

In the case of `Cc1c(N2C(=O)C(C)(C)N(CCCOc3ccc(-c4ccncc4)c(Cl)c3)C2=S)ccc(C#N)c1Cl` [EM-8887], on Human Androgen Receptor ([…]), the “Human Androgen Receptor Binding RBA (%) R1881 = 100” value was 1890 ± 1040 (n = 2) %. Further, in test [1], the “CX Agonistic activity % Stimulation Bulbo” value is listed as 214%, the “CX Agonistic activity % Stimulation SV” value was determined as 107% and the “CX Agonistic activity % Stimulation Prostate” value came out at 55%. Moreover, the IC50 in test [2] (setting [3]) came out at 133 nM.

Regarding `Cc1c(N2C(=O)C(C)(C)N(CCCOc3ccc(-c4cc[n+]([O-])cc4)cc3)C2=S)ccc(C#N)c1Cl` [EM-8913], the “Human Androgen Receptor Binding RBA (%) R1881 = 100” value at Human Androgen Receptor ([…]) was found to be 114%. In test [1], the “CX Agonistic activity % Stimulation Bulbo” value is on record as 160%, the “CX Agonistic activity % Stimulation SV” value is listed as 65% and the “CX Agonistic activity % Stimulation Prostate” value came out at 54%. Moreover, the IC50 in test [2] (setting [3]) is above 100 nM.
